Results reported in PMC5419589 (Bioorganic & medicinal chemistry, 2016).
Where a name gives a salt, the structure may show the parent alone.

How the values were obtained:
[1] = test system: T. brucei brucei strain BF427; assay: T. brucei growth inhibition assay; type: cell-based, Trypanosoma brucei brucei; conditions: for fold enhancement of potency with respect to compound 1: vs 1, T. brucei EC50; for activity on T. brucei cells (in words): T. brucei EC50 assay; for EC50: Trypanosoma brucei, 48 h, read-out: EC50, concentration required to inhibit growth by 50% of T. brucei brucei, strain BF427, 48H, AlamarBlue; for fold reduction of potency compared to compound 2: vs 2, T. brucei EC50
[2] = test system: T. brucei brucei (strain TREU667); assay: Chronic; type: in vivo, mouse; conditions: for relapse with parasites in the blood / suppression of parasitemia during treatment phase: TREU667, 50 mg/kg twice a day oral day 21 to 34; for number of mice free of parasitemia/number of mice in the group: same dosing
[3] = day 35 post-infection, day 1 post-treatment
[4] = day 36 post-infection, day 2 post-treatment
[5] = day 37 post-infection, day 3 post-treatment
[6] = day 38 post-infection, day 4 post-treatment
[7] = day 39 post-infection, day 5 post-treatment
[8] = day 40 post-infection, day 6 post-treatment

Cl.NCCN(C(=O)c1ccc(Cl)cc1Cl)c1ccc(Cl)cc1 [Compound 2, N-(2-Aminoethyl)-2,4-dichloro-N-(4-chlorophenyl)benzamide]
fold enhancement of potency with respect to compound 1 [1]: 4 fold

CN(C)CCN(C(=O)c1ccc(Cl)cc1Cl)c1ccc(Cl)cc1 [Compound 47, 2,4-Dichloro-N-(4-chlorophenyl)-N-[2-(dimethylamino)ethyl] benzamide]
activity on T. brucei cells (in words) [1]: eliminated anti-T. brucei activity

CC1(C)OB(O)c2cc(NC(=O)c3ccc(F)cc3C(F)(F)F)ccc21 [SCYX-7158, reference compound]
cure in late-stage model (in words) ([2]; 50 mg/kg PO twice per day): cured all mice

CCN(C(=O)c1ccc(Cl)cc1Cl)c1ccc(F)cc1 [Compound 45, 2,4-Dichloro-N-ethyl-N-(4-fluorophenyl)benzamide]
activity on T. brucei cells (in words) [1]: eliminated anti-T. brucei activity | EC50 [1]: > 10 µM

Cl.NCCN(C(=O)c1ccc(Cl)cc1Cl)c1ccc(Oc2ccc(Cl)cc2)cc1 [Compound 16, N-(2-Aminoethyl)-2,4-dichloro-N-[4-(4-chlorophenoxy)phenyl] benzamide hydrochloride]
fold enhancement of potency with respect to compound 1 [1]: 7 fold

Cl.NCCN(C(=O)c1ccc(Cl)cc1Cl)c1ccc(Cl)cc1Cl [Compound 12, N-(2-Aminoethyl)-2,4-dichloro-N-(2,4-dichlorophenyl)benzamide]
fold enhancement of potency with respect to compound 1 [1]: more than 2 fold

Cl.NCCN(C(=O)c1ccc(Cl)cc1Cl)c1ccc(N)cc1 [Compound 10, N-(2-Aminoethyl)-N-(4-aminophenyl)-2,4-dichlorobenzamide]
activity on T. brucei cells (in words) [1]: eliminated activity

Cc1cc(C)cc(COc2ccc(N(CCN)C(=O)c3ccc(Cl)cc3Cl)cc2)c1.Cl [Compound 76, N-(2-Aminoethyl)-2,4-dichloro-N-{4-[(3,5-dimethylphenyl)methoxy]phenyl}benzamide hydrochloride]
relapse with parasites in the blood [2]: all mice relapsed | suppression of parasitemia during treatment phase [2]: partial suppression | number of mice free of parasitemia/number of mice in the group [2, 3]: 3/4 | number of mice free of parasitemia/number of mice in the group [2, 4]: 3/4 | number of mice free of parasitemia/number of mice in the group [2, 5]: 3/4 | number of mice free of parasitemia/number of mice in the group [2, 6]: 3/4 | number of mice free of parasitemia/number of mice in the group [2, 7]: 2/4 | number of mice free of parasitemia/number of mice in the group [2, 8]: 1/4

CC(C)c1ccc(COc2ccc(N(CCN)C(=O)c3cccnc3Cl)cc2)cc1.Cl [Compound 72, N-(2-Aminoethyl)-2-chloro-N-(4-{[4-(propan-2-yl)phenyl]methoxy}phenyl)pyridine-3-carboxamide hydrochloride]
relapse with parasites in the blood [2]: all mice relapsed | suppression of parasitemia during treatment phase [2]: complete suppression | number of mice free of parasitemia/number of mice in the group [2, 3]: 5/5 | number of mice free of parasitemia/number of mice in the group [2, 4]: 5/5 | number of mice free of parasitemia/number of mice in the group [2, 5]: 4/5 | number of mice free of parasitemia/number of mice in the group [2, 7]: 2/5

Cl.NCCN(C(=O)c1c(F)c(F)c(F)c(F)c1F)c1ccc(Cl)cc1 [Compound 41, N-(2-Aminoethyl)-N-(4-chlorophenyl)-2,3,4,5,6-pentafluorobenzamide hydrochloride]
fold improvement in activity compared to 20 ([1]; vs 20): 26 fold

Cc1ccccc1C(=O)N(CCN)c1ccc(Cl)cc1.Cl [Compound 24, N-(2-Aminoethyl)-N-(4-chlorophenyl)-2-methylbenzamide hydrochloride]
fold more active than 4-methyl derivative 25 ([1]; vs 25): 14 fold

Cl.NCCN(C(=O)c1ccc(Cl)cc1Cl)c1ccc(Br)cc1 [Compound 3, N-(2-Aminoethyl)-N-(4-bromophenyl)-2,4-dichlorobenzamide hydrochloride]
fold enhancement of potency with respect to compound 1 [1]: 4 fold

Cl.O=C(c1ccc(Cl)cc1Cl)N(c1ccc(Cl)cc1)c1cccnc1 [Compound 63, 2,4-Dichloro-N-(4-chlorophenyl)-N-(pyridin-3-yl)benzamide]
activity on T. brucei cells (in words) [1]: inactive

O=C(c1ccc(Cl)cc1Cl)N(CCN1CCOCC1)c1ccc(Cl)cc1 [Compound 48, 2,4-Dichloro-N-(4-chlorophenyl)-N-[2-(morpholin-4-yl)ethyl] benzamide]
activity on T. brucei cells (in words) [1]: inactive

Cl.NCCN(C(=O)c1ccc(F)cc1F)c1ccc(Cl)cc1 [Compound 40, N-(2-Aminoethyl)-N-(4-chlorophenyl)-2,4-difluorobenzamide hydrochloride]
fold more active than 2-floro (30) or 4-fluoro (28) derivatives ([1]; vs 30 or 28): at least 3 fold

Cl.NCCN(C(=O)c1ccc(Cl)cc1Cl)c1ccc([N+](=O)[O-])cc1 [Compound 9, N-(2-Aminoethyl)-2,4-dichloro-N-(4-nitrophenyl)benzamide hydrochloride]
activity on T. brucei cells (in words) [1]: eliminated activity

N=C(N)c1ccc(/N=N/Nc2ccc(C(=N)N)cc2)cc1 [Diminazene, diminazene aceturate, reference compound]
number of mice free of parasitemia/number of mice in the group [2, 3]: 3/3 | number of mice free of parasitemia/number of mice in the group [2, 4]: 3/3 | number of mice free of parasitemia/number of mice in the group [2, 5]: 3/3 | number of mice free of parasitemia/number of mice in the group [2, 6]: 3/3 | number of mice free of parasitemia/number of mice in the group [2, 7]: 3/3 | number of mice free of parasitemia/number of mice in the group [2, 8]: 3/3 | number of mice free of parasitemia/number of mice in the group ([2]; day 41–42 post-infection, day 7–8 post-treatment): 3/3 | number of mice free of parasitemia/number of mice in the group ([2]; day 43–45 post-infection, day 9–11 post-treatment): 3/3 | number of mice free of parasitemia/number of mice in the group ([2]; day 46–49 post-infection, day 12–15 post-treatment): 1/3 | number of mice free of parasitemia/number of mice in the group ([2]; day 50–51 post-infection, day 16–17 post-treatment): 0/3

N#CCN(C(=O)c1ccc(Cl)cc1Cl)c1ccc(Cl)cc1 [Compound 60, 2,4-Dichloro-N-(4-chlorophenyl)-N-(cyanomethyl)benzamide]
activity on T. brucei cells (in words) [1]: inactive

O=C(c1ccc(Cl)cc1Cl)N(CCO)c1ccc(Cl)cc1 [Compound 49, 2,4-Dichloro-N-(4-chlorophenyl)-N-(2-hydroxyethyl)benzamide]
activity on T. brucei cells (in words) [1]: inactive

Cl.NCCN(C(=O)c1ccc(Cl)cc1Cl)c1cccc(Cl)c1 [Compound 11, N-(2-Aminoethyl)-2,4-dichloro-N-(3-chlorophenyl)benzamide hydrochloride]
fold reduction of potency compared to compound 2 [1]: 10 fold

CNCCN(C(=O)c1ccc(Cl)cc1Cl)c1ccc(Cl)cc1.Cl [Compound 58, 2,4-Dichloro-N-(4-chlorophenyl)-N-[2-(methylamino)ethyl] benzamide hydrochloride]
fold reduction of potency compared to compound 2 [1]: 5 fold

Cl.NCCN(C(=O)c1ccc(Cl)cc1Cl)c1ccc(Oc2cccc(Cl)c2)cc1 [Compound 17, N-(2-Aminoethyl)-2,4-dichloro-N-[4-(3-chlorophenoxy)phenyl] benzamide hydrochloride]
fold enhancement of potency with respect to compound 1 [1]: 4 fold

NCCN(C(=O)c1ccccc1C(F)(F)F)c1ccc(Cl)cc1 [Compound 42, N-(2-aminoethyl)-N-(4-chlorophenyl)-2-(trifluoromethyl) benzamide hydrochloride]
EC50 [1]: 0.18 µM

Cl.NCCCN(C(=O)c1ccc(Cl)cc1Cl)c1ccc(Cl)cc1 [Compound 50, N-(3-Aminopropyl)-2,4-dichloro-N-(4-chlorophenyl)benzamide]
fold reduction of potency compared to compound 2 [1]: 10 fold

Cl.NCCN(C(=O)c1ccccc1Cl)c1ccc(Cl)cc1 [Compound 23, N-(2-Aminoethyl)-2-chloro-N-(4-chlorophenyl)benzamide hydrochloride]
fold more active than 4-chlorobenzoyl derivative 21 ([1]; vs 21): ~8 fold | fold more active than 3-chloro (22) ([1]; vs 22): 3 fold

Cl.NCCN(C(=O)c1cccnc1C(F)(F)F)c1ccc(OCc2ccc(Cl)cc2)cc1 [Compound 68, N-(2-Aminoethyl)-N-{4-[(4-chlorophenyl)methoxy]phenyl}-2-(trifluoromethyl)pyridine-3-carboxamide hydrochloride]
fold more active than 2-chloronicotinoyl (67) ([1]; vs 67): 10 fold

Cl.NCCN(C(=O)c1ccccc1C(F)(F)F)c1ccc(OCc2ccc(Cl)cc2)cc1 [Compound 66, N-(2-Aminoethyl)-N-{4-[(4-chlorophenyl)methoxy]phenyl}-2-(trifluoromethyl)benzamide hydrochloride]
activity on T. brucei cells (in words) [1]: single digit nanomolar EC50 values

Cl.NCCN(C(=O)c1cc([N+](=O)[O-])ccc1Cl)c1ccc(Cl)cc1 [Compound 36, N-(2-Aminoethyl)-2-chloro-N-(4-chlorophenyl)-5-nitrobenzamide hydrochloride]
times less potent than 2-chloro analogue 23 ([1]; vs 23): 3 fold

COc1ccc(N(CCN)C(=O)c2ccc(Cl)cc2Cl)cc1.Cl [Compound 8, N-(2-Aminoethyl)-2,4-dichloro-N-(4-methoxyphenyl)benzamide hydrochloride]
activity on T. brucei cells (in words) [1]: eliminated activity

COc1ccccc1C(=O)N(CCN)c1ccc(Cl)cc1.Cl [Compound 26, N-(2-Aminoethyl)-N-(4-chlorophenyl)-2-methoxybenzamide hydrochloride]
times less active compared to 23, 24 ([1]; vs 23, 24): at least 5 fold | times more potent than 4-methoxy (27) ([1]; vs 27): at least 4 fold

CC(=O)NCCN(C(=O)c1ccc(Cl)cc1Cl)c1ccc(Cl)cc1 [Compound 46, N-{2-[N-(4-Chlorophenyl)-1-(2,4-dichlorophenyl)formamido]ethyl}acetamide]
activity on T. brucei cells (in words) [1]: eliminated anti-T. brucei activity
